Reference: patent US10583109B2, “Use of silver(I) complexes as anticancer agents” (University of Johannesburg, priority 2012, dated 2020)

Experiments:
[1] = system: MCF-7 breast cancer cells; experiment: AlamarBlue viability and proliferation assay of MCF-7 breast cancer cells; type: cell-based, human; details: MCF-7 cells
Protocol: For the biological studies, MCF-7 breast cancer cells were obtained from an immortal cell line from human adenocarcinoma from (primary site) mammary gland and (metastatic site) pleural effusion (ATCC no HTB-22).
MCF-7 breast cancer cells were cultured in Dulbecco's modified Eagle's medium (DMEM), 13.53 g/L with sodium bicarbonate (NaHCO3), 3.7 g/L supplemented with 10% foetal bovine serum (FBS), 1% gentamycin and 5% Penicillin/Streptomycin/Fungizone in 75 cm^3 culture flasks. Cells were subcultured twice a week and incubated at 37° C. with 5% CO2 in a humidified atmosphere. Hanks balanced salt solution (HBSS), supplemented DMEM media and trypsin versene were warmed to 37° C. prior to subculturing. Cells were washed twice with 10 ml Hanks balanced salt solution for 1 minute and were then incubated for 4.5 to 5 minutes at 37° C. with 6 ml trypsin versene to remove the cells from the culture flask. To inactivate the trypsin versene, 10 ml supplemented DMEM was added and the cells were pelleted by centrifugation at 1028 g for 4 minutes with an Allegra™ 25R Centrifuge. The pellet was resuspended in 1 ml supplemented DMEM and 500 μl of the cell suspension was then added to 25 ml of supplemented DMEM media in 75 cm^3 culture flasks.
MCF-7 breast cancer cells, in terms of a first study, and SNO-oesophageal cancer cells, in terms of a second study, were treated with 10 μM silverthiocyanide complexes (1)-(5), as well as their ligands (Ligand-1 to Ligand-5) over a 24 hour incubation period. […] An untreated negative control (UT) was exposed to similar conditions as the treated cells and monitored during the experimental study.
The AlamarBlue® viability and proliferation assay of complexes (1)-(5) for the MCF-7 breast cancer cells is depicted in FIGS. 1A to 1F. The percentage viability of control samples determined by the AlamarBlue® viability and proliferation assay is depicted in FIG. 1A. […] A significant difference (P<0.001) between the control and the treated samples was calculated using Student's T-test and is indicated by an asterisk.
(§1) This Figure depicts the percentage viability of MCF-7 cells treated with various concentrations of complex (1) as determined by the AlamarBlue® viability and proliferation assay. […] The asterisk indicates a significant difference between a sample and the control (P<0.001) as calculated with Student's T-test.
as §1, with “FIG. 1C to FIG. 1F represent the dose dependant studies of complexes (2) to (5), respectively. In each of these Figures,” for “This Figure depicts”, “complexes (2) to (5) was” for “complex (1) as”, “T-test. […]” for “T-test.”

[2] = system: SNO-oesophageal cancer cells; type: cell-based
Protocol: The SNO-oesophageal cancer cells were cultured in Dulbecco's modified Eagles medium (DMEM) containing 10% Foetal bovine serum (FBS), 0.8% Penicillin/Streptomycin/Fungizone and 0.2% Gentamycin. The SNO-oesophageal cancer cells were subcultured every 48 hours and incubated at 37° C. under a 5% CO2 humidified atmosphere. After 48 hours the cells were trypsinized and plated (6×10^5 cells) in 3.5 cm culture dishes and left to cultivate for 24 hours.
MCF-7 breast cancer cells, in terms of a first study, and SNO-oesophageal cancer cells, in terms of a second study, were treated with 10 μM silverthiocyanide complexes (1)-(5), as well as their ligands (Ligand-1 to Ligand-5) over a 24 hour incubation period. These complexes were dissolved in 0.1% Dimethyl sulfoxide (DMSO). The DMSO alone (vehicle control) decreased the viability with approximately 2.2%, signifying its minimal influence in cancer cell growth. For comparative purposes, 100 μM Cisplatin (CDDP) and 25% H2O2 was included which respectively serves as the apoptotic and necrotic controls. Cisplatin was prepared in 0.9% NaCl, whereas H2O2 was prepared in the supplemented DMEM media right before treatment. An untreated negative control (UT) was exposed to similar conditions as the treated cells and monitored during the experimental study.
An AlamarBlue® Viability® (Serotec, UK) assay was performed after a 24 hour treatment with complexes (1)-(5) and their ligands (Ligand-1 to Ligand-5, respectively) to evaluate the cellular effect the instant complexes (and their ligands) may have on the cancer cells. AlamarBlue® dye (10%) was incubated with trypsinized cells over a 2 hour period before the fluorescence was measured with a Synergy HT Multi-Detection Microplate reader (BioTek, Winooski, Vt.) at wavelengths of 530 nm and (excitation) and 590 nm (emission). This fluorescent based assay in particular involves the metabolic oxidation-reduction reaction of resazurin to a reduced resorufin product that is directly proportional to the amount of viable cells.
The percentage cellular viability of differentially treated SNO-oesophageal cells was determined using an AlamarBlue® assay, as depicted in FIG. 7. Different controls (grey) were included: untreated, 0.1% DMSO solvent and apoptotic control (100 μM Cisplatin) as well as the corresponding ligands (10 μM) of complexes (1)-(5). Cells were treated with silver(I) thiocyanate phosphine complexes (1)-(5) at a concentration of 10 μM. The percentages were calculated with respect to the control and error bars were constructed on the basis of Standard Error of the Mean (SEM) where n=9 except for the ligand of compound 4 (n=8). The P-values (*P<0.001 and **P<0.0001) were determined with the Student's T-test to evaluate the significant difference.
The cells were thereafter treated with complexes (6)-(9) at a concentration of 10 μM prepared in 0.1% DMSO. Treatment with either 25% H2O2 or 100 μM CDDP served as controls for necrosis and apoptosis respectively. The CDDP was prepared in 0.9% NaCl while the H2O2 was diluted with supplemented DMEM prior to treatment.
A suspension (100 μl) of the differentially treated cells was added in triplicate to a microtiter plate. In the dark, AlamarBlue® dye (10 μl) was added to each well containing a sample, followed by a 2 hour incubation in a 5% CO2 incubator at 37° C. The fluorescence was read on a Synergy HT Multi-Detection Microplate reader at a wavelength of 530 nm and (excitation) and 590 nm (emission). In terms of this study, the apoptotic control CDDP (100 μM) was included. Error bars represent the standard error of the mean (SEM) where n=9. The Student's T-test was used to determine the significant difference of the treatments with respect to DMSO (P*<0.05 and P**<0.001). The silver(I) nitrate phosphine complexes under evaluation decreased the cancer cell viability to a large extent compared to DMSO except complex (9).
SNO-oesophageal cancer cells were a gift from the University of Pretoria, RSA. […]

Compound	cytotoxic activity (ranking) [1]	cancer cell viability / toxicity ([2]; 10 μM in 0.1% DMSO, 24 hours, compared to vehicle control)	cancer cell death induced ([2]; 10 μM, 24 hours)	percentage cellular viability / toxicity ([2]; 10 μM, 24 hour treatment, compared to the control)
C1#[N+][Ag]([P+](c2ccccc2)(c2ccccc2)c2ccccc2)([P+](c2ccccc2)(c2ccccc2)c2ccccc2)[S]C#[N+][Ag]([P+](c2ccccc2)(c2ccccc2)c2ccccc2)([P+](c2ccccc2)(c2ccccc2)c2ccccc2)[S]1 [complex (1), [AgSCN(PPh3)2]2]	strongest			
c1ccc([P+](c2ccccc2)(c2ccccc2)[Ag+]([P+](c2ccccc2)(c2ccccc2)c2ccccc2)([P+](c2ccccc2)(c2ccccc2)c2ccccc2)[P+](c2ccccc2)(c2ccccc2)c2ccccc2)cc1 [complex (9), AgNO3(PPh3)4]		low cytotoxicity	~31.25%	
[AgSCN{P(4-FC6H4)3}2]2 [complex (3)]	strongest			highly toxic
